# Assay results taken from patent US20240025912A1 (Merck Sharp & Dohme LLC, priority 2022, published 2024).
# Target: GST-RIPK1 (recombinant GST-RIPK1 kinase domain (residues 1-327)) (Homo sapiens (Human), UniProt Q13546)
# Test: RIPK1-ADP-Glo Enzymatic Assay
# Assay type: biochemical
# Conditions: 25 nM GST-RIPK1, 300 μM ATP, 3 μM dephosphorylated-MBP, 30 min pre-incubation, 150 min reaction
# Protocol: The enzymatic activity of RIPK1 is measured using an assay derived from ADP-Glo kit (TMPromega), which provides a luminescent-based ADP detection system. Specifically, the ADP generated by RIPK1 kinase is proportionally detected as luminescent signals in a homogenous fashion. In this context, the assessment of the inhibitory effect of small molecules (EC50) is measured by the effectiveness of the compounds to inhibit the ATP to ADP conversion by RIPK1.
# In this assay, the potency (EC50) of each compound was determined from a ten-point (1:3 serial dilution; top compound concentration of 100000 nM) titration curve using the following outlined procedure. To each well of a white ProxiPlus 384 well-plate, 30 nL of compound (1% DMSO in final assay volume of 3 μL) was dispensed, followed by the addition of 2 μL of 1× assay buffer (25 mM Hepes 7.3, 20 mM MgCl2, 50 mM NaCl, 1 mM DTT, 0.005% Tween20, and 0.02% BSA) containing 37.5 nM of GST-RIPK1 (recombinant GST-RIPK1 kinase domain (residues 1-327) enzyme produced from baculovirus-transfected Sf21 cells: MW 62 kDa). Plates were placed in an ambient temperature humidified chamber for a 30 min pre-incubation with compound. Subsequently, each reaction was initiated by the addition of 1 μL 1× assay buffer containing 900 μM ATP and 3 μM dephosphorylated-MBP substrate. The final reaction in each well of 3 μL consists of 25 nM of GST-RIPK1, 300 μM ATP, and 3 μM dephosphorylated-MBP. Kinase reactions were allowed to proceed for 150 min prior to adding ADP-Glo reagents per Promega's outlined kit protocol. Dose-response curves were generated by plotting percent effect (% product conversion; Y-axis) vs. Log 10 compound concentrations (X-axis). EC50 values were calculated using a non-linear regression, four-parameters sigmoidal dose-response model.
# Sequence of GST-RIPK1 (recombinant GST-RIPK1 kinase domain (residues 1-327)) (Q13546 1-327): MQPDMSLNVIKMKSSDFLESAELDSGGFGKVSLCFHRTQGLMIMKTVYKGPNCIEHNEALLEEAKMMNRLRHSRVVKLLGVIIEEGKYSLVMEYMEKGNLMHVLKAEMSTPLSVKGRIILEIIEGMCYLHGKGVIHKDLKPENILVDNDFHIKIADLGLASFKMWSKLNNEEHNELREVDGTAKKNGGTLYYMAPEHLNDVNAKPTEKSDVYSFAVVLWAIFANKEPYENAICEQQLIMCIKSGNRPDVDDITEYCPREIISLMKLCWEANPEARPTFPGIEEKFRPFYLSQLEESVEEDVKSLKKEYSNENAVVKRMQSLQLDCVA
row,EC50,Structure (SMILES)
1,495 nM,"C#Cc1cccc(C2CCc3nn(C45CC(F)(C4)C5)c(=O)n32)c1 (racemic) [Compound 4-4, (±)-5-(3-ethynylphenyl)-2-(3-fluorobicyclo[1.1.1]pentan-1-yl)-2,5,6,7-tetrahydro-3H-pyrrolo[2,1-c][1,2,4]triazol-3-one]"
2,44.1 nM,"Cc1cc(F)cc(C2CCc3nn(C45CC(F)(C4)C5)c(=O)n32)c1 (racemic) [Compound 4-6, (±)-2-(3-fluorobicyclo[1.1.1]pentan-1-yl)-5-(3-fluoro-5-methylphenyl)-2,5,6,7-tetrahydro-3H-pyrrolo[2,1-c][1,2,4]triazol-3-one]"
3,601 nM,"CC1Cc2nn(C34CC(C#N)(C3)C4)c(=O)n2C1c1cc(F)cc(F)c1 (single isomer, unassigned) [Compound 1-52, 3-[5-(S or R)-(3,5-difluorophenyl)-6-(S or R)-methyl-3-oxo-6,7-dihydro-3H-pyrrolo[2,1-c][1,2,4]triazol-2(5H)-yl]bicyclo[1.1.1]pentane-1-carbonitrile]"
4,340 nM,"N#CC12CC(n3nc4n(c3=O)C(C3CCCC3)CC4)(C1)C2 (single isomer, unassigned) [Compound 1-54, 3-(5-(S or R)-cyclopentyl-3-oxo-6,7-dihydro-3H-pyrrolo[2,1-c][1,2,4]triazol-2(5H)-yl)bicyclo[1.1.1]pentane-1-carbonitrile]"
5,116 nM,"O=c1n(C23CC(F)(C2)C3)nc2n1[C@H](c1cc(F)cc(F)c1)CC2F (single isomer, unassigned) [Compound 6-1, (5S)-5-(3,5-difluorophenyl)-7-(S or R)-fluoro-2-(3-fluorobicyclo[1.1.1]pentan-1-yl)-2,5,6,7-tetrahydro-3H-pyrrolo[2,1-c][1,2,4]triazol-3-one]"
6,157 nM,"O=c1n(C23CC(F)(C2)C3)nc2n1[C@H](c1ccccc1)CC2F (single isomer, unassigned) [Compound 6-3, (5S)-7-(S or R)-fluoro-2-(3-fluorobicyclo[1.1.1]pentan-1-yl)-5-phenyl-2,5,6,7-tetrahydro-3H-pyrrolo[2,1-c][1,2,4]triazol-3-one]"
7,20.5 nM,"N#CC12CC(n3nc4n(c3=O)[C@H](c3cc(F)cc(F)c3)CC4F)(C1)C2 (single isomer, unassigned) [Compound 6-6, 3-[(5S)-5-(3,5-difluorophenyl)-7-(S or R)-fluoro-3-oxo-6,7-dihydro-3H-pyrrolo[2,1-c][1,2,4]triazol-2(5H)-yl]bicyclo[1.1.1]pentane-1-carbonitrile]"
8,21.8 nM,"N#CC12CC(n3nc4n(c3=O)[C@H](c3ccccc3)CC4F)(C1)C2 (single isomer, unassigned) [Compound 6-8, 3-[(5S)-7-(S or R)-fluoro-3-oxo-5-phenyl-6,7-dihydro-3H-pyrrolo[2,1-c][1,2,4]triazol-2(5H)-yl]bicyclo[1.1.1]pentane-1-carbonitrile]"

# Continued, molecule first:
row,Structure (SMILES),EC50
1,"N#CC12CC(n3nc4n(c3=O)C(c3cnccn3)CC4)(C1)C2 (racemic) [Compound 4-1, (±)-3-(3-oxo-5-(pyrazin-2-yl)-6,7-dihydro-3H-pyrrolo[2,1-c][1,2,4]triazol-2(5H)-yl)bicyclo[1.1.1]pentane-1-carbonitrile]",385 nM
2,"COc1cc(F)cc(C2CCc3nn(C45CC(F)(C4)C5)c(=O)n32)c1 (racemic) [Compound 4-2, (±)-5-(3-fluoro-5-methoxyphenyl)-2-(3-fluorobicyclo[1.1.1]pentan-1-yl)-2,5,6,7-tetrahydro-3H-pyrrolo[2,1-c][1,2,4]triazol-3-one]",259 nM
3,"N#Cc1cccc(C2CCc3nn(C45CC(F)(C4)C5)c(=O)n32)c1 (racemic) [Compound 4-3, (±)-3-[2-(3-fluorobicyclo[1.1.1]pentan-1-yl)-3-oxo-2,5,6,7-tetrahydro-3H-pyrrolo[2,1-c][1,2,4]triazol-5-yl]benzonitrile]",426 nM
4,"O=c1n(C23CC(F)(C2)C3)nc2n1C(c1cccc(F)c1F)CC2 (racemic) [Compound 4-5, (±)-5-(2,3-difluorophenyl)-2-(3-fluorobicyclo[1.1.1]pentan-1-yl)-2,5,6,7-tetrahydro-3H-pyrrolo[2,1-c][1,2,4]triazol-3-one]",53.8 nM
5,"N#CC12CC(n3nc4n(c3=O)C(C3CCCCC3)CC4)(C1)C2 (single isomer, unassigned) [Compound 1-55, 3-(5-(S or R)-cyclohexyl-3-oxo-6,7-dihydro-3H-pyrrolo[2,1-c][1,2,4]triazol-2(5H)-yl)bicyclo[1.1.1]pentane-1-carbonitrile]",103 nM
6,"O=c1n(C23CC(F)(C2)C3)nc2n1[C@H](c1cc(F)cc(F)c1)CC2F (single isomer, unassigned) [Compound 6-2, (5S)-5-(3,5-difluorophenyl)-7-(S or R)-fluoro-2-(3-fluorobicyclo[1.1.1]pentan-1-yl)-2,5,6,7-tetrahydro-3H-pyrrolo[2,1-c][1,2,4]triazol-3-one]",18.4 nM
7,"O=c1n(C23CC(F)(C2)C3)nc2n1[C@H](c1ccccc1)CC2F (single isomer, unassigned) [Compound 6-4, (5S)-7-(S or R)-fluoro-2-(3-fluorobicyclo[1.1.1]pentan-1-yl)-5-phenyl-2,5,6,7-tetrahydro-3H-pyrrolo[2,1-c][1,2,4]triazol-3-one]",21.9 nM
8,"N#CC12CC(n3nc4n(c3=O)[C@H](c3cc(F)cc(F)c3)CC4F)(C1)C2 (single isomer, unassigned) [Compound 6-5, 3-[(5S)-5-(3,5-difluorophenyl)-7-(S or R)-fluoro-3-oxo-6,7-dihydro-3H-pyrrolo[2,1-c][1,2,4]triazol-2(5H)-yl]bicyclo[1.1.1]pentane-1-carbonitrile]",274 nM
9,"N#CC12CC(n3nc4n(c3=O)[C@H](c3ccccc3)CC4F)(C1)C2 (single isomer, unassigned) [Compound 6-7, 3-[(5S)-7-(S or R)-fluoro-3-oxo-5-phenyl-6,7-dihydro-3H-pyrrolo[2,1-c][1,2,4]triazol-2(5H)-yl]bicyclo[1.1.1]pentane-1-carbonitrile]",505 nM
10,"N#CC12CC(n3nc4n(c3=O)[C@H](c3ccccc3F)CC4F)(C1)C2 (single isomer, unassigned) [Compound 6-9, 3-[(5S)-7-(S or R)-fluoro-5-(2-fluorophenyl)-3-oxo-6,7-dihydro-3H-pyrrolo[2,1-c][1,2,4]triazol-2(5H)-yl]bicyclo[1.1.1]pentane-1-carbonitrile]",68.9 nM
11,"N#CC12CC(n3nc4n(c3=O)[C@H](c3ccccc3F)CC4F)(C1)C2 (single isomer, unassigned) [Compound 6-10, 3-[(5S)-7-(S or R)-fluoro-5-(2-fluorophenyl)-3-oxo-6,7-dihydro-3H-pyrrolo[2,1-c][1,2,4]triazol-2(5H)-yl]bicyclo[1.1.1]pentane-1-carbonitrile]",18.1 nM
12,"O=c1n(C23CCC(CC2)C3)nc2n1[C@H](c1ccccc1)CC2 [Compound 1-1, (5S)-2-(bicyclo[2.2.1]heptan-1-yl)-5-phenyl-2,5,6,7-tetrahydro-3H-pyrrolo[2,1-c][1,2,4]triazol-3-one]",21.6 nM
13,"O=c1n(C23CC(F)(C2)C3)nc2n1[C@H](c1cc(F)cc(F)c1)CC2 [Compound 1-2, (5S)-5-(3,5-difluorophenyl)-2-(3-fluorobicyclo[1.1.1]pentan-1-yl)-2,5,6,7-tetrahydro-3H-pyrrolo[2,1-c][1,2,4]triazol-3-one]",22.8 nM
14,"O=c1n(C23CCC(F)(CC2)C3)nc2n1[C@H](c1cc(F)cc(F)c1)CC2 [Compound 1-3, (5S)-5-(3,5-difluorophenyl)-2-(4-fluorobicyclo[2.2.1]heptan-1-yl)-2,5,6,7-tetrahydro-3H-pyrrolo[2,1-c][1,2,4]triazol-3-one]",34.8 nM
15,"O=c1n(C23CCC(C2)C3)nc2n1[C@H](c1cc(F)cc(F)c1)CC2 [Compound 1-4, (5S)-2-(bicyclo[2.1.1]hexan-1-yl)-5-(3,5-difluorophenyl)-2,5,6,7-tetrahydro-3H-pyrrolo[2,1-c][1,2,4]triazol-3-one]",31.1 nM
16,"N#CC12CC(n3nc4n(c3=O)[C@H](c3cc(F)cc(F)c3)CC4)(C1)C2 [Compound 1-5, 3-[(5S)-5-(3,5-difluorophenyl)-3-oxo-6,7-dihydro-3H-pyrrolo[2,1-c][1,2,4]triazol-2(5H)-yl]bicyclo[1.1.1]pentane-1-carbonitrile]",14.8 nM
17,"O=c1n(C23CC(F)(C2)C3)nc2n1[C@H](c1ccccc1)CC2 [Compound 1-6, (5S)-2-(3-fluorobicyclo[1.1.1]pentan-1-yl)-5-phenyl-2,5,6,7-tetrahydro-3H-pyrrolo[2,1-c][1,2,4]triazol-3-one]",51.2 nM
18,"O=c1n(C23CC(C2)C3)nc2n1[C@H](c1cc(F)cc(F)c1)CC2 [Compound 1-7, (5S)-2-(bicyclo[1.1.1]pentan-1-yl)-5-(3,5-difluorophenyl)-2,5,6,7-tetrahydro-3H-pyrrolo[2,1-c][1,2,4]triazol-3-one]",98.4 nM
